# Measurements taken from patent publication US5431924A, “Anti-inflammatory composition derived from emu oil” (priority 1990, dated 1995).
# System: male polyarthritic hooded rats
# Assay: Polyarthritis in male hooded rats: emu oil before and after uv exposure or benzoyl peroxide oxidation, with and without additives (Table 8)
# Settings: for anti-inflammatory activity in the rat polyarthritic model: emu oil after exposure to strong ultraviolet light, with or without additive, in words
# [1] = Table 8, dose/kg 2 ml (EO), 20 mg (R.A., B-Carotene), 25 mg (Trolox-DE)
compound,measurement,setting,value
"CC(=O)OC/C=C(C)/C=C/C=C(C)/C=C/C1=C(C)CCCC1(C)C [R.A. in E-Pg, Retinyl acetate]","Mean changes, Thickness Rear Paws, Days 12-16",[1],0.16 mm
same,"Mean changes, Thickness Rear Paws, Days 16-20",[1],0.30 mm
same,"Mean changes, Thickness Tail, Days 12-16",[1],-0.12 mm
same,"Mean changes, Thickness Tail, Days 16-20",[1],-0.10 mm
same,"Mean changes, Wt Chge, Days 12-16",[1],-02 g
same,"Mean changes, Wt Chge, Days 16-20",[1],+10 g
same,anti-inflammatory activity in the rat polyarthritic model,,anti-inflammatory activity could be restored to the oil
CC1=C(/C=C/C(C)=C/C=C/C(C)=C/C=C/C=C(C)/C=C/C=C(C)/C=C/C2=C(C)CCCC2(C)C)C(C)(C)CCC1 [β-carotene],anti-inflammatory activity in the rat polyarthritic model,,anti-inflammatory activity could be restored to the oil by the addition of retinyl acetate but not β-carotene
